# In the supplement of paper PMC10307832:
# What was measured:
# Assay in all cases: relative viability (nuclei count vs DMSO), 5 days (fraction); higher = more cells survive
# Axitinib + Navitoclax = compound: CNC(=O)c1ccccc1Sc1ccc2c(/C=C/c3ccccn3)n[nH]c2c1 [Axitinib] + CC1(C)CCC(c2ccc(Cl)cc2)=C(CN2CCN(c3ccc(C(=O)NS(=O)(=O)c4ccc(N[C@H](CCN5CCOCC5)CSc5ccccc5)c(S(=O)(=O)C(F)(F)F)c4)cc3)CC2)C1 [Navitoclax] (partner 0.5 µM)
# In short: (§1)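 Lung cancer cell lines were pin-tool dosed in 1536-well plates on the day after seeding, with either a lone drug or a fixed anchor-drug dose plus five library-drug doses (not always all listed) in √10 steps. Nuclei were counted on 4× images after 5 days. Relative viability is the ratio of treated-well to vehicle-well nuclei counts, with each value a median of duplicate plates.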
# [1] = compound: CC1=CC=C(C=C1)C(=O)CN2C3=C(CCCC3)SC2=N [Pifithrin_alpha] + Cc1nc(Nc2ncc(C(=O)Nc3c(C)cccc3Cl)s2)cc(N2CCN(CCO)CC2)n1 [Dasatinib] (partner 0.075 µM)
# In short: as §1
# Axitinib + Palbociclib = compound: CNC(=O)c1ccccc1Sc1ccc2c(/C=C/c3ccccn3)n[nH]c2c1 [Axitinib] + CC(=O)c1c(C)c2cnc(Nc3ccc(N4CCNCC4)cn3)nc2n(C2CCCC2)c1=O [Palbociclib] (partner 0.5 µM)
# In short: as §1
# Axitinib + Pemetrexed = compound: CNC(=O)c1ccccc1Sc1ccc2c(/C=C/c3ccccn3)n[nH]c2c1 [Axitinib] + Nc1nc2[nH]cc(CCc3ccc(C(=O)N[C@@H](CCC(=O)O)C(=O)O)cc3)c2c(=O)[nH]1 [Pemetrexed] (partner 0.2 µM)
# In short: as §1
cell line,measurement,setting,value
HCC-366,relative viability,Axitinib + Navitoclax; first compound 0.005 µM,1.07
same,relative viability,Axitinib + Navitoclax; first compound 0.01581 µM,1.03
same,relative viability,Axitinib + Navitoclax; first compound 0.05 µM,1.01
same,relative viability,Axitinib + Navitoclax; first compound 0.1581 µM,1.06
same,relative viability,Axitinib + Navitoclax; first compound 0.5 µM,1.15
same,relative viability,[1]; first compound 1 µM,0.501
same,relative viability,[1]; first compound 3.162 µM,0.506
same,relative viability,[1]; first compound 10 µM,0.426
same,relative viability,[1]; first compound 100 µM,0.537
same,relative viability,Axitinib + Palbociclib; first compound 0.005 µM,0.438
same,relative viability,Axitinib + Palbociclib; first compound 0.01581 µM,0.378
same,relative viability,Axitinib + Palbociclib; first compound 0.05 µM,0.399
same,relative viability,Axitinib + Palbociclib; first compound 0.1581 µM,0.36
same,relative viability,Axitinib + Palbociclib; first compound 0.5 µM,0.524
same,relative viability,Axitinib + Pemetrexed; first compound 0.005 µM,0.151
same,relative viability,Axitinib + Pemetrexed; first compound 0.01581 µM,0.168
same,relative viability,Axitinib + Pemetrexed; first compound 0.05 µM,0.182
same,relative viability,Axitinib + Pemetrexed; first compound 0.1581 µM,0.208
same,relative viability,Axitinib + Pemetrexed; first compound 0.5 µM,0.224
HCC-827,relative viability,Axitinib + Navitoclax; first compound 0.005 µM,0.971
same,relative viability,Axitinib + Navitoclax; first compound 0.01581 µM,0.959
same,relative viability,Axitinib + Navitoclax; first compound 0.05 µM,0.998
same,relative viability,Axitinib + Navitoclax; first compound 0.1581 µM,1.02
same,relative viability,Axitinib + Navitoclax; first compound 0.5 µM,1
same,relative viability,[1]; first compound 1 µM,0.336
same,relative viability,[1]; first compound 3.162 µM,0.333
same,relative viability,[1]; first compound 10 µM,0.351
same,relative viability,[1]; first compound 31.62 µM,0.429
same,relative viability,[1]; first compound 100 µM,0.363
same,relative viability,Axitinib + Palbociclib; first compound 0.005 µM,0.511
same,relative viability,Axitinib + Palbociclib; first compound 0.01581 µM,0.501
same,relative viability,Axitinib + Palbociclib; first compound 0.05 µM,0.475
same,relative viability,Axitinib + Palbociclib; first compound 0.1581 µM,0.491
same,relative viability,Axitinib + Palbociclib; first compound 0.5 µM,0.546
same,relative viability,Axitinib + Pemetrexed; first compound 0.005 µM,0.228
same,relative viability,Axitinib + Pemetrexed; first compound 0.01581 µM,0.158
same,relative viability,Axitinib + Pemetrexed; first compound 0.05 µM,0.279
same,relative viability,Axitinib + Pemetrexed; first compound 0.1581 µM,0.296
same,relative viability,Axitinib + Pemetrexed; first compound 0.5 µM,0.275
HOP-62,relative viability,Axitinib + Navitoclax; first compound 0.005 µM,1.07
same,relative viability,Axitinib + Navitoclax; first compound 0.01581 µM,1.06
same,relative viability,Axitinib + Navitoclax; first compound 0.05 µM,1.02
same,relative viability,Axitinib + Navitoclax; first compound 0.1581 µM,1.06
same,relative viability,Axitinib + Navitoclax; first compound 0.5 µM,1.12
same,relative viability,[1]; first compound 1 µM,0.726
same,relative viability,[1]; first compound 3.162 µM,0.589
same,relative viability,[1]; first compound 10 µM,0.578
same,relative viability,[1]; first compound 31.62 µM,0.698
same,relative viability,[1]; first compound 100 µM,0.638
same,relative viability,Axitinib + Palbociclib; first compound 0.005 µM,0.469
same,relative viability,Axitinib + Palbociclib; first compound 0.01581 µM,0.436
same,relative viability,Axitinib + Palbociclib; first compound 0.05 µM,0.44
same,relative viability,Axitinib + Palbociclib; first compound 0.1581 µM,0.45
same,relative viability,Axitinib + Palbociclib; first compound 0.5 µM,0.468
same,relative viability,Axitinib + Pemetrexed; first compound 0.005 µM,0.378
same,relative viability,Axitinib + Pemetrexed; first compound 0.01581 µM,0.328
same,relative viability,Axitinib + Pemetrexed; first compound 0.05 µM,0.31
same,relative viability,Axitinib + Pemetrexed; first compound 0.1581 µM,0.41
same,relative viability,Axitinib + Pemetrexed; first compound 0.5 µM,0.482
IA-LM,relative viability,Axitinib + Navitoclax; first compound 0.005 µM,0.88
same,relative viability,Axitinib + Navitoclax; first compound 0.01581 µM,0.79
same,relative viability,Axitinib + Navitoclax; first compound 0.05 µM,0.944
same,relative viability,Axitinib + Navitoclax; first compound 0.1581 µM,0.823
same,relative viability,Axitinib + Navitoclax; first compound 0.5 µM,0.829
LC-2-ad,relative viability,Axitinib + Navitoclax; first compound 0.005 µM,0.572
same,relative viability,Axitinib + Navitoclax; first compound 0.01581 µM,0.576
same,relative viability,Axitinib + Navitoclax; first compound 0.05 µM,0.532
same,relative viability,Axitinib + Navitoclax; first compound 0.1581 µM,0.506
same,relative viability,Axitinib + Navitoclax; first compound 0.5 µM,0.573
same,relative viability,[1]; first compound 3.162 µM,0.492
same,relative viability,[1]; first compound 10 µM,0.347
same,relative viability,[1]; first compound 100 µM,0.437
same,relative viability,Axitinib + Palbociclib; first compound 0.005 µM,0.473
same,relative viability,Axitinib + Palbociclib; first compound 0.01581 µM,0.532
same,relative viability,Axitinib + Palbociclib; first compound 0.05 µM,0.485
same,relative viability,Axitinib + Palbociclib; first compound 0.1581 µM,0.503
same,relative viability,Axitinib + Palbociclib; first compound 0.5 µM,0.523
same,relative viability,Axitinib + Pemetrexed; first compound 0.005 µM,0.261
same,relative viability,Axitinib + Pemetrexed; first compound 0.01581 µM,0.257
same,relative viability,Axitinib + Pemetrexed; first compound 0.05 µM,0.268
same,relative viability,Axitinib + Pemetrexed; first compound 0.1581 µM,0.271
same,relative viability,Axitinib + Pemetrexed; first compound 0.5 µM,0.277
LCLC-97TM1,relative viability,Axitinib + Navitoclax; first compound 0.005 µM,0.485
same,relative viability,Axitinib + Navitoclax; first compound 0.01581 µM,0.506
same,relative viability,Axitinib + Navitoclax; first compound 0.05 µM,0.475
same,relative viability,Axitinib + Navitoclax; first compound 0.1581 µM,0.489
same,relative viability,Axitinib + Navitoclax; first compound 0.5 µM,0.534
same,relative viability,[1]; first compound 1 µM,1.08
same,relative viability,[1]; first compound 3.162 µM,0.846
same,relative viability,[1]; first compound 10 µM,0.984
same,relative viability,[1]; first compound 31.62 µM,0.428
same,relative viability,[1]; first compound 100 µM,0.954
same,relative viability,Axitinib + Palbociclib; first compound 0.005 µM,0.27
same,relative viability,Axitinib + Palbociclib; first compound 0.01581 µM,0.263
same,relative viability,Axitinib + Palbociclib; first compound 0.05 µM,0.199
same,relative viability,Axitinib + Palbociclib; first compound 0.1581 µM,0.201
same,relative viability,Axitinib + Palbociclib; first compound 0.5 µM,0.239
same,relative viability,Axitinib + Pemetrexed; first compound 0.005 µM,0.203
same,relative viability,Axitinib + Pemetrexed; first compound 0.01581 µM,0.188
same,relative viability,Axitinib + Pemetrexed; first compound 0.05 µM,0.176
same,relative viability,Axitinib + Pemetrexed; first compound 0.1581 µM,0.186
same,relative viability,Axitinib + Pemetrexed; first compound 0.5 µM,0.181
LCLC-103H,relative viability,[1]; first compound 1 µM,0.518
same,relative viability,[1]; first compound 3.162 µM,0.474
same,relative viability,[1]; first compound 10 µM,0.498
same,relative viability,[1]; first compound 31.62 µM,0.43
same,relative viability,[1]; first compound 100 µM,0.425
same,relative viability,Axitinib + Palbociclib; first compound 0.005 µM,0.475
same,relative viability,Axitinib + Palbociclib; first compound 0.01581 µM,0.464
same,relative viability,Axitinib + Palbociclib; first compound 0.05 µM,0.493
same,relative viability,Axitinib + Palbociclib; first compound 0.1581 µM,0.474
same,relative viability,Axitinib + Palbociclib; first compound 0.5 µM,0.451
same,relative viability,Axitinib + Pemetrexed; first compound 0.005 µM,0.507
same,relative viability,Axitinib + Pemetrexed; first compound 0.01581 µM,0.443
same,relative viability,Axitinib + Pemetrexed; first compound 0.05 µM,0.496
same,relative viability,Axitinib + Pemetrexed; first compound 0.1581 µM,0.477
same,relative viability,Axitinib + Pemetrexed; first compound 0.5 µM,0.526
LK-2,relative viability,Axitinib + Navitoclax; first compound 0.005 µM,1.1
same,relative viability,Axitinib + Navitoclax; first compound 0.01581 µM,0.84
same,relative viability,Axitinib + Navitoclax; first compound 0.05 µM,0.657
same,relative viability,Axitinib + Navitoclax; first compound 0.1581 µM,0.659
same,relative viability,Axitinib + Navitoclax; first compound 0.5 µM,0.644
same,relative viability,[1]; first compound 1 µM,0.249
same,relative viability,[1]; first compound 3.162 µM,0.246
same,relative viability,[1]; first compound 10 µM,0.28
same,relative viability,[1]; first compound 100 µM,0.307
same,relative viability,Axitinib + Palbociclib; first compound 0.005 µM,0.492
same,relative viability,Axitinib + Palbociclib; first compound 0.01581 µM,0.661
same,relative viability,Axitinib + Palbociclib; first compound 0.05 µM,0.544
same,relative viability,Axitinib + Palbociclib; first compound 0.1581 µM,0.659
same,relative viability,Axitinib + Palbociclib; first compound 0.5 µM,0.668
same,relative viability,Axitinib + Pemetrexed; first compound 0.005 µM,0.26
same,relative viability,Axitinib + Pemetrexed; first compound 0.01581 µM,0.216
same,relative viability,Axitinib + Pemetrexed; first compound 0.05 µM,0.234
same,relative viability,Axitinib + Pemetrexed; first compound 0.1581 µM,0.258
same,relative viability,Axitinib + Pemetrexed; first compound 0.5 µM,0.242
LOU-NH91,relative viability,Axitinib + Navitoclax; first compound 0.005 µM,0.744
same,relative viability,Axitinib + Navitoclax; first compound 0.01581 µM,0.467
same,relative viability,Axitinib + Navitoclax; first compound 0.05 µM,0.66
same,relative viability,Axitinib + Navitoclax; first compound 0.1581 µM,0.645
same,relative viability,Axitinib + Navitoclax; first compound 0.5 µM,0.802
same,relative viability,[1]; first compound 1 µM,0.371
same,relative viability,[1]; first compound 3.162 µM,0.501
same,relative viability,[1]; first compound 10 µM,0.535
same,relative viability,[1]; first compound 31.62 µM,0.475
same,relative viability,[1]; first compound 100 µM,0.493
same,relative viability,Axitinib + Palbociclib; first compound 0.005 µM,0.564
same,relative viability,Axitinib + Palbociclib; first compound 0.01581 µM,0.568
same,relative viability,Axitinib + Palbociclib; first compound 0.05 µM,0.537
same,relative viability,Axitinib + Palbociclib; first compound 0.1581 µM,0.444
same,relative viability,Axitinib + Palbociclib; first compound 0.5 µM,0.527
same,relative viability,Axitinib + Pemetrexed; first compound 0.005 µM,0.392
same,relative viability,Axitinib + Pemetrexed; first compound 0.01581 µM,0.402
same,relative viability,Axitinib + Pemetrexed; first compound 0.05 µM,0.406
same,relative viability,Axitinib + Pemetrexed; first compound 0.1581 µM,0.421
same,relative viability,Axitinib + Pemetrexed; first compound 0.5 µM,0.395
